Results as given in patent US9808505B2, “Suppression of malignant mesothelioma by overexpression or stimulation of endothelial protein C receptors (EPCR)” (BOARD OF REGENTS, THE UNIVERSITY OF TEXAS SYSTEM, priority 2013, dated 2017).

How the values were obtained:
Format in all cases: cell-based, human
REN MPM cells [1] = assay: Measurement of cytosolic Ca2+ release (Fluo-4 fluorescence microscopy); conditions: peptide 50 μM (FIG. 1E)
Procedure: Fluorescence microscopy was used for measurement of cytosolic Ca^2+ release as described earlier (34). MPM cells were seeded in 8-well chambered cover slips (Nunc, Rochester, N.Y.) at a density of 10,000 cells/well. After 24 h, cells were washed and incubated with 4 μM Fluo-4/AM Ester (Molecular Probes, Inc, Eugene, Oreg.) for 1 h in buffer B in a humidified atmosphere of 37° C./5% CO2. The cells were then washed with buffer B, and a chambered cover slip was placed on the stage of an inverted microscope (Axio Observer Z1) encased in an incubation chamber that maintained 37° C./5% CO2. Live images of cell fluorescence were recorded by exciting the Fluo-4 probe with 488 nm light and monitoring 530 nm emission using Carl Zeiss LSM 510 Meta Confocal Laser Scanning system. After 15 sec of image acquisition, PAR1 agonist peptide […]; SEQ ID NO:10)) or PAR2 agonist peptide (SLIGRL; (SEQ ID NO:11)) was added to the cells at a final concentration of 50 μM and the recording was continued for an additional 165 sec. Results are represented as change in fluorescence intensity over time.

REN MPM cells [2] = assay: Cell proliferation assay (BrdU incorporation) in MPM cells; conditions: for difference in cell proliferation between REN and REN(+EPCR): in vitro, presence or absence of ligand, FVIIa 10 nM, APC 20 nM, thrombin 10 nM, 24 h; for cell proliferation of REN cells in response to ligand (in words): wild-type REN cells in vitro, 10 nM ligand in SFM, 24 h (FIG. 8)
Procedure: Cell proliferation assay in MPM cells in the presence or absence of various ligands was performed using Apo-BrdU cell proliferation assay kit from Millipore (Temecula, Calif.) following the manufacturer's instructions. Briefly, MPM cells (7,500 cells/well) were seeded in 96-well plates in RPMI medium containing 10% FBS, and after 24 h the cells were washed once and maintained in serum-free medium (SFM). After 24 h, the cells were washed once with SFM and incubated with SFM or SFM containing FVIIa, APC, thrombin or serum (1%) for 24 h. Twenty μl of BrdU-labeling solution was added to each well 8 h prior to the completion of 24 h incubation with the test compound. The cells were fixed and processed for detection of BrdU incorporation by incubating the cells with an anti-BrdU antibody, followed by peroxidase-conjugated secondary antibody and then the substrate tetramethyl-benzidine with three washings in between each step. The color developed in the assay was measured as absorbance at 450 nm using the absorbance measured at 650 nm as a reference value in a microplate reader (Molecular Devices, Sunnyvale, Calif.).

REN MPM cells [3] = assay: Elaboration of proangiogenic factors on exposure to FVIIa; conditions: REN MPM cells in response to FVIIa
Procedure: To assess whether TF promotes tumor growth in MPM through elaboration of proangiogenic factors by direct signaling (as observed in breast cancer cells (38, 39)), studies were conducted here to examine whether exposure of REN MPM cells to FVIIa increased production of proangiogenic factors in these cells. […] Thus, it seems unlikely that TF-FVIIa-PAR1-mediated cell signaling promotes MPM tumor growth through elaboration of proangiogenic factors as previously speculated for promotion of tumor growth in breast cancer (21).

SLIGRL [PAR2 agonist peptide]
intracellular Ca2+ release (REN MPM cells [1]): not

thrombin
thrombin-induced cell proliferation in PAR1 knock-down cells (REN MPM cells [2]; REN cells with PAR1 knock-down (REN-P1KD)): diminished
difference in cell proliferation between REN and REN(+EPCR) (REN MPM cells [2]): no measurable differences
cell proliferation of REN cells in response to ligand (in words) (REN MPM cells [2]): modest increase

TFLLRNPNDK [PAR1 agonist peptide]
intracellular Ca2+ release (REN MPM cells [1]): induced intracellular Ca^2+ release

B1: FVIIa: Recombinant human FVIIa from Novo Nordisk; clotting factor that initiates coagulation upon binding to TF (protein)
chain: ANAFLEELRPGSLERECKEEQCSFEEAREIFKDAERTKLFWISYSDGDQCASSPCQNGGSCKDQLQSYICFCLPAFEGRNCETHKDDQLICVNENGGCEQYCSDHTGTKRSCRCHEGYSLLADGVSCTPTVEYPCGKIPILEKRNASKPQGRIVGGKVCPKGECPWQVLLLVNGAQLCGGTLINTIWVVSAAHCFDKIKNWRNLIAVLGEHDLSEHDGDEQSRRVAQVIIPSTYVPGTTNHDIALLRLHQPVVLTDHVVPLCLPERTFSERTLAFVRFSLVSGWGQLLDRGATALELMVLNVPRLMTQDCLQQSRKVGDSPNITEYMFCAGYSDGSKDSCKGDSGGPHATHYRGTWYLTGIVSWGQGCATVGHFGVYTRVSQYIEWLQKLMRSEPRPGVLLRAPFP
FVIIa-induced increase in cell proliferation in TF knock-down cells (REN MPM cells [2]; REN cells with TF knock-down (REN-TFKD)): abrogated
difference in cell proliferation between REN and REN(+EPCR) (REN MPM cells [2]): no measurable differences
increase in rate of cell proliferation (REN MPM cells [2]; naïve REN MPM cells, addition of FVIIa): about 70%
cell proliferation of REN cells in response to ligand (in words) (REN MPM cells [2]): modestly but consistently
elaboration of proangiogenic factors, including IL-8, CCN1 and CCN2 (REN MPM cells [3]): robust or reproducible elaboration
